Source: US10189838B2, “Aza-oxo-indoles for the treatment and prophylaxis of respiratory syncytial virus infection” (Hoffmann-La Roche Inc., priority 2013, dated 2019)
pEC50: −log10 of the molar value.

What was measured:
RSV Long strain = assay: Viral cytopathic effect (CPE) assay, RSV Long strain; type: cell-based, Respiratory Syncytial Virus; details: human respiratory syncytial virus, 144 h, cell viability after 6 days (Cell Counting kit-8)
Procedure, shortened: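 Cells in DMEM with 10% FBS infected next day with RSV Long (A subtype) at a dose giving ~80–90% CPE after 6 days, alongside half-log compound dilutions. Viability at day 6 by CCK-8, absorbance 450 nm referenced to 630 nm; EC50 is concentration giving 50% of maximal protection.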

[1] = Single dose PK in male ICR mouse (IV and PO); type: in vivo; details: male ICR mice; for AUC(0-t) / bioavailability: mouse, plasma; for bioavailability: read-out: F (bioavailability)
Method: The single dose PK in male ICR mouse was performed to assess their pharmacokinetic properties. Two groups of animals were dosed via either bolus intravenous (IV) or oral gavage (PO) of the respective compound. The animals for oral administration were fasted overnight prior to dosing and food was resumed 4 hours postdose. Blood samples (approximately 400 μL) were collected via cardiac puncture after euthanasia by carbon dioxide inhalation at 2 minutes, 5 minutes, 15 minutes, 30 minutes, 1 hour, 2 hours, 4 hours, 6 hours, 8 hours, and 24 hours postdose for IV group, and at 5 minutes, 15 minutes, 30 minutes, 1 hour, 2 hours, 4 hours, 6 hours, 8 hours, and 24 hours postdose for PO group. Blood samples were placed into tubes containing sodium heparin and centrifuged at 8000 rpm for 6 minutes at 4° C. to separate plasma from the samples.
Following centrifugation, the resulting plasma was transferred to clean tubes for bioanalysis on LC/MS/MS. The pharmacokinetic parameters were calculated using non-compartmental module of WinNonlin® Professional 5.2.

RSV infection = details: selected infants, intramuscularly 15 mg/kg once a month for the RSV season; cited from earlier work

CS(=O)(=O)CCn1c(CN2C(=O)C3(CC3)c3ccncc32)cc2cc(Cl)cnc21 [Example 2-6, 1′-({5-Chloro-1-[2-(methylsulfonyl)ethyl]-1H-pyrrolo[2,3-b]pyridin-2-yl}methyl)spiro[cyclopropane-1,3′-pyrrolo[2,3-c]pyridin]-2′(1′H)-one]
pEC50 (RSV Long strain): 7.56
CLz ([1]; IV 5 mg/kg): 23.7 mL/min/kg
t1/2z ([1]; IV 5 mg/kg): 0.724 h
F (bioavailability) ([1]; PO 25 mg/kg): 58.3%
t1/2z ([1]; PO 25 mg/kg): 0.701 h
AUC(0-t) ([1]; IV 5 mg/kg): 3510 ng·h/mL
AUC(0-t) ([1]; PO 25 mg/kg): 10200 ng·h/mL

CS(=O)(=O)CCn1c(CN2C(=O)C3(CC3)c3ccncc32)nc2cc(Cl)ccc21 [Example 34-1, 1′-({5-Chloro-1-[2-(methylsulfonyl)ethyl]-1H-benzimidazol-2-yl}methyl)spiro[cyclopropane-1,3′-pyrrolo[2,3-c]pyridin]-2′(1′H)-one]
pEC50 (RSV Long strain): 7.92
CLz ([1]; IV 1.45 mg/kg): 64.8 mL/min/kg
t1/2z ([1]; IV 1.45 mg/kg): 10.2 h
t1/2z ([1]; PO 25 mg/kg): 2.98 h
AUC(0-t) ([1]; IV 1.45 mg/kg): 373 ng·h/mL
AUC(0-t) ([1]; PO 25 mg/kg): 3280 ng·h/mL
bioavailability ([1]; PO 25 mg/kg): 51%

CS(=O)(=O)CCn1c(CN2C(=O)C3(CC3)c3ccncc32)nc2cc(Cl)cc(F)c21 [Example 37-1, 1′-({5-Chloro-7-fluoro-1-[2-(methylsulfonyl)ethyl]-1H-benzimidazol-2-yl}methyl)spiro[cyclopropane-1,3′-pyrrolo[2,3-c]pyridin]-2′(1′H)-one]
pEC50 (RSV Long strain): 8.05
CLz ([1]; IV 2 mg/kg): 44.4 mL/min/kg
t1/2z ([1]; IV 2 mg/kg): 0.976 h
t1/2z ([1]; PO 25 mg/kg): 3.74 h
AUC(0-t) ([1]; IV 2 mg/kg): 751 ng·h/mL
AUC(0-t) ([1]; PO 25 mg/kg): 9290 ng·h/mL
bioavailability ([1]; PO 25 mg/kg): 99%

O=C1N(Cc2nc3cc(Cl)cc(F)c3n2CC2COC2)c2cnccc2C12CC2 [Example 38-3, 1′-{[5-Chloro-7-fluoro-1-(oxetan-3-ylmethyl)-1H-benzimidazol-2-yl]methyl}spiro[cyclopropane-1,3′-pyrrolo[2,3-c]pyridin]-2′(1′H)-one]
pEC50 (RSV Long strain): 7.52

NC1(Cn2c(CN3C(=O)C4(CC4)c4ccncc43)nc3cc(Cl)ccc32)COC1 [Example 39-1, 1′-({1-[(3-Aminooxetan-3-yl)methyl]-5-chloro-1H-benzimidazol-2-yl}methyl)spiro[cyclopropane-1,3′-pyrrolo[2,3-c]pyridin]-2′(1′H)-one]
pEC50 (RSV Long strain): 7.74

NC1(Cn2c(CN3C(=O)C4(CC4)c4ccncc43)nc3cc(Cl)cc(F)c32)COC1 [Example 39-2, 1′-({1-[(3-Aminooxetan-3-yl)methyl]-5-chloro-7-fluoro-1H-benzimidazol-2-yl}methyl)spiro[cyclopropane-1,3′-pyrrolo[2,3-c]pyridin]-2′(1′H)-one]
pEC50 (RSV Long strain): 6.64

palivizumab
reduction of hospitalization rate caused by RSV infection (RSV infection): 45-55%
